Results: PubChem BioAssay (NCI)
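Growth conditions: 96-well plates. Treatment: test compound, 48 hours, 5 concentrations. Analysis: linear interpolation between bracketing concentrations; unreached endpoints set to highest concentration. At the TGI there is no net growth.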

Legend:
Experiment in all cases: growth of human tumour cells (NCI), 48 h
MDA-N = tested on: MDA-N
SN12C renal = tested on: SN12C renal
ACHN renal = tested on: ACHN renal
LXFL 529 NSCLC = tested on: LXFL 529 NSCLC
M19-MEL melanoma = tested on: M19-MEL melanoma
SNB-19 CNS = tested on: SNB-19 CNS
XF 498 CNS = tested on: XF 498 CNS
DLD-1 colon = tested on: DLD-1 colon
SNB-78 CNS = tested on: SNB-78 CNS
MOLT-4 leukemia = tested on: MOLT-4 leukemia
TK-10 renal = tested on: TK-10 renal
RXF-631 renal = tested on: RXF-631 renal
KM20L2 colon = tested on: KM20L2 colon
HOP-18 NSCLC = tested on: HOP-18 NSCLC
DMS 273 small cell lung = tested on: DMS 273 small cell lung
DMS 114 small cell lung = tested on: DMS 114 small cell lung

| Structure (SMILES) | TGI (MDA-N) [µM] | TGI (SN12C renal) [µM] | TGI (ACHN renal) [µM] | TGI (LXFL 529 NSCLC) [µM] | TGI (M19-MEL melanoma) [µM] | TGI (SNB-19 CNS) [µM] | TGI (XF 498 CNS) [µM] | TGI (DLD-1 colon) [µM] | TGI (SNB-78 CNS) [µM] | TGI (MOLT-4 leukemia) [µM] | TGI (TK-10 renal) [µM] | TGI (RXF-631 renal) [µM] | TGI (KM20L2 colon) [µM] | TGI (HOP-18 NSCLC) [µM] | TGI (DMS 273 small cell lung) [µM] | TGI (DMS 114 small cell lung) [µM] |
| --- | --- | --- | --- | --- | --- | --- | --- | --- | --- | --- | --- | --- | --- | --- | --- | --- |
| C/C(=N\NS(=O)(=O)c1ccc(C)cc1)C(CN(C)C)C(c1ccccc1)c1c(O)c2ccccc2oc1=O (centres undefined) | > 100 | > 100 | > 100 | > 100 | > 100 | > 100 | > 100 | > 100 | > 100 | > 100 | > 100 | > 100 | > 100 | > 100 | – | – |
| NC(=O)c1csc(CCCCCCc2nc(C(N)=O)cs2)n1 | – | > 100 | > 100 | > 100 | 49.3 | > 100 | – | > 100 | > 100 | > 100 | > 100 | > 100 | > 100 | > 100 | > 100 | > 100 |
| O=C(/C=C/c1c(O)ccc2ccccc12)c1cccc2ccccc12 | – | > 100 | > 100 | > 100 | 71.9 | > 100 | > 100 | > 100 | > 100 | > 100 | > 100 | – | > 100 | > 100 | > 100 | > 100 |
| Cn1c(=O)c2c(nc(C[N+]3([O-])CCOCC3)n2C)n(C)c1=O | – | > 100 | > 100 | > 100 | > 100 | > 100 | > 100 | > 100 | – | > 100 | > 100 | – | > 100 | – | > 100 | > 100 |
| COc1ccc(C2CCC(Cl)(OC)CC2C=O)cc1 (centres undefined) | – | > 100 | > 100 | > 100 | > 100 | > 100 | – | > 100 | – | > 100 | > 100 | – | > 100 | > 100 | > 100 | 66.7 |
| CCOC(=O)C1=C(O)c2ccccc2C(=O)C1=O | – | > 100 | > 100 | – | 54.4 | > 100 | > 100 | > 100 | > 100 | > 100 | > 100 | – | – | > 100 | > 100 | > 100 |
| CC(=O)OC1OC2C(NC(=O)OC(C)(C)C)C1CC2(OCc1ccccc1)OCc1ccccc1 (centres undefined) | – | 75.2 | 80 | > 100 | > 74.1 | > 100 | 41.9 | – | > 100 | 62.9 | 44.3 | > 100 | 39.3 | 46.5 | 69.5 | 58 |
| O=C(O)c1cc(-c2ccccc2O)nc2ccccc12 | – | > 100 | > 100 | > 100 | > 100 | > 100 | > 100 | > 100 | > 100 | > 100 | > 100 | – | > 100 | > 100 | – | > 100 |
| COc1cccc(/C(C=O)=C(\Cl)c2ccc(OC)c(OC)c2)c1 | – | 27.8 | 26.4 | 24.4 | 23.4 | 16.3 | 31.1 | 25.5 | 37.7 | 42.5 | 73 | – | 44.1 | 27.8 | 27.3 | 30.5 |
| O=C1C(Cl)C(c2ccc(Cl)cc2)N1n1cnc2ccccc2c1=O (centres undefined) | – | > 100 | > 100 | > 100 | > 100 | > 100 | > 100 | > 100 | > 100 | > 100 | > 100 | – | > 100 | > 100 | > 100 | > 100 |
| CC(=O)c1c(O)ccc2c1CC(CC=O)O2 (centres undefined) | – | > 100 | > 100 | > 100 | > 100 | > 100 | > 100 | > 100 | > 100 | > 100 | > 100 | > 100 | > 100 | – | – | 55.1 |
| NC(=O)C12C3C4C1C1C2C3C41C(N)=O (centres undefined) | – | > 100 | > 100 | > 100 | > 100 | > 100 | – | > 100 | – | > 100 | > 100 | – | > 100 | > 100 | > 100 | > 100 |
| CCOC(OCC)c1ccc(/C=C/c2cc(OC)c(OC)c(OC)c2)cc1 | – | 36.9 | > 100 | 41.7 | 37 | > 100 | – | 38.8 | 87.9 | – | 82 | 70.7 | 41.8 | > 100 | 41.3 | 50.2 |
| COc1ccc(/C=C2\N=C(c3ccccc3)N(Nc3nnc(NN4C(=O)/C(=C/c5ccc(OC)cc5)N=C4c4ccccc4)c4ccccc34)C2=O)cc1 | – | > 100 | > 100 | > 100 | > 100 | > 100 | – | > 100 | > 100 | > 100 | – | – | > 100 | > 100 | > 100 | > 100 |
| COC1=CC(C2c3cc4c(cc3[C@@H](Nc3ccc([N+](=O)[O-])cc3)C3COC(=O)[C@H]23)OCO4)=CC(=O)C1=O (some centres undefined) | – | 7.59 | 4.43 | > 78.7 | 45.2 | > 86.5 | 50.7 | > 96.7 | > 100 | 10.5 | 43 | 14.1 | > 62.6 | > 100 | 5.12 | 8.28 |
| COC(=O)[C@H]1C=C[C@@H](C)n2c(=O)c3ccccc3c(=O)n21 | – | > 100 | > 100 | > 100 | > 100 | > 100 | > 100 | > 100 | > 100 | > 100 | > 100 | – | > 100 | – | > 100 | > 100 |
| CC1=Nc2c([nH]c(=S)[nH]c2=O)NC(c2ccc(Cl)c(Cl)c2)C1 (centres undefined) | – | 43.9 | > 100 | 37.8 | 34.2 | > 59.8 | > 100 | > 56.7 | > 100 | > 100 | > 87.7 | – | > 62.9 | > 100 | > 72.9 | > 81 |
| NC1=NC2(O)c3ccccc3C(=O)C2(O)N1 (centres undefined) | – | > 100 | > 100 | > 100 | – | > 100 | – | > 100 | > 100 | > 100 | > 100 | > 100 | > 100 | > 100 | > 100 | > 100 |
| COc1ccc(-c2onc(-c3c(C)cc(C)cc3C)c2C2=NCCCN2)cc1 | – | > 100 | > 100 | > 100 | > 100 | > 100 | > 100 | > 100 | > 100 | > 100 | – | > 100 | > 100 | > 100 | – | – |
| NC12CC3CC(C1)CC(Cl)(C3)C2 | – | – | > 100 | > 100 | > 100 | – | > 100 | > 100 | > 100 | > 100 | > 100 | > 100 | > 100 | – | > 100 | > 100 |
| CC(NC(=O)/C(C#N)=C/c1ccc2[nH]ccc2c1)c1ccccc1 (centres undefined) | 31.4 | 35 | > 64.9 | 41.4 | – | 45.1 | – | 34.5 | 90.4 | 52.3 | 50.1 | – | 33.2 | 53.3 | 40.7 | 37.6 |
| CN(C)CCCSc1c2ccccc2nc2cc(NCC(=O)Nc3ccccc3-c3ccccc3NC(=O)CNc3ccc4c(SCCCN(C)C)c5ccccc5nc4c3)ccc12 | – | > 100 | > 100 | > 100 | > 100 | > 100 | > 100 | > 100 | > 100 | > 100 | > 100 | – | > 100 | > 100 | > 100 | > 100 |
